ChEMBL document CHEMBL1201862, “PubChem BioAssay data set” (2004)
pIC50: −log10 of the molar value. Activity calls are given as the source filed them.

Experiments:
[1] = biological target: Cyclin-dependent kinase 5/CDK5 activator 1 (Homo sapiens, UniProt Q00535); experiment: blockade of human CDK5 activity – biochemical, cherry-picked samples, set 2, dose response (AID 504545)
[2] = biological target: T1, Kappa-type opioid receptor (Homo sapiens, UniProt P41145); assay type: functional
[3] = biological target: Beta-galactosidase (Escherichia coli, UniProt Q8VNN2); assay type: functional
[4] = biological target: T1, Kappa-type opioid receptor; assay type: functional; remark: listed apart in the source
[5] = Luminescence Cell-Based Dose Retest to Confirm Inhibitors of Cancer Stem Cells. [Related pubchem assays (depositor defined):AID2717, AID2721]; assay type: functional; settings: Homo sapiens
[6] = biological target: Neurotensin receptor type 1 (Homo sapiens, UniProt P30989); assay type: functional;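 further: Image-based confirmatory dose-response assay measuring agonist activity at NTR1; NTR1-expressing U2OS osteosarcoma cells imaged for beta-arrestin GFP spot formation; agonist potency where compounds increase beta-arrestin recruitment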
[7] = luciferase reporter signal suppression in cells – H4 neuroglioma cells, luminescence, dose response (AID 1990); assay type: functional, cell-based
[8] = Luminescence Cell-Based Dose Response HTS to Identify Inhibitors of 5'UTR Stem-Loop Driven Prion Protein mRNA Translation in H4 Neuroglioblastoma Cells. [Related pubchem assays: 1827 (Project Summary), 1813 (Primary HTS)]; assay type: functional
[9] = HEK-293T cell viability reduction – luminescence, B-cell screen hits, cytotoxicity control for BCR NF-kB inhibitor project, dose response (AID 489021); assay type: functional, cell-based;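 further: HEK-293T cells carrying an NF-kB luciferase reporter; cells exposed to compound for about 14 hours before viability readout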
[10] = Luminescence Cell-Based Dose Response HTS to Identify Activators of Luciferase Translation or Activity in H4-C Neuroglioblastoma Cells. [Related pubchem assays: 1829 (Project Summary), 1814 (Primary HTS)]; assay type: functional
[11] = Luminescence Cell-Based Dose Retest to Confirm Activators of 5'UTR Stem-Loop Driven Alpha-Synuclein mRNA Translation in H4 Neuroglioblastoma Cells. [Related pubchem assays (depositor defined):AID1813, AID1829]; assay type: functional
[12] = Luminescence Cell-Based Dose Response HTS to Identify Activators of 5'UTR Stem-Loop Driven Prion Protein mRNA Translation in H4-C Neuroglioblastoma Cells. [Related pubchem assays: 1829 (Project Summary), 1814 (Primary HTS)]; assay type: functional
[13] = Luminescence Cell-Based Dose Confirmation HTS to Identify Activators of 5'UTR Stem-Loop Driven Alpha-Synuclein mRNA Translation in H4 Neuroglioblastoma Cells. [Related pubchem assays: 1829 (Project Summary), 1814 (Primary HTS)]; assay type: functional
[14] = Luminescence Cell-Based Dose Response HTS to Identify Activators of Luciferase Translation or Activity in H4 […] Cells. [Related pubchem assays: 1829 (Project Summary), 1814 (Primary HTS)]; assay type: functional
[15] = test system: H4; experiment: Luminescence Cell-Based Dose Response HTS to Identify Activators of 5'UTR Stem-Loop Driven Prion Protein mRNA Translation in H4 Neuroglioblastoma Cells. [Related pubchem assays: 1829 (Project Summary), 1814 (Primary HTS)]; assay type: functional; settings: Homo sapiens
[16] = biological target: T2, Heat shock factor protein 1 (Mus musculus, UniProt P38532); experiment: enhancement of HSF1-driven luciferase signal – cell-based, NIH3T3, luminescence, dose retest, confirmation (AID 435004); assay type: functional;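 further: stress induced by proteasome inhibitor MG132 added 30 min after compound; luciferase reporter driven by HSF1 response element in NIH3T3 cells; actives raise luminescence as potentiators of the MG132 stress response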
T2 sequence (P38532 whole entry): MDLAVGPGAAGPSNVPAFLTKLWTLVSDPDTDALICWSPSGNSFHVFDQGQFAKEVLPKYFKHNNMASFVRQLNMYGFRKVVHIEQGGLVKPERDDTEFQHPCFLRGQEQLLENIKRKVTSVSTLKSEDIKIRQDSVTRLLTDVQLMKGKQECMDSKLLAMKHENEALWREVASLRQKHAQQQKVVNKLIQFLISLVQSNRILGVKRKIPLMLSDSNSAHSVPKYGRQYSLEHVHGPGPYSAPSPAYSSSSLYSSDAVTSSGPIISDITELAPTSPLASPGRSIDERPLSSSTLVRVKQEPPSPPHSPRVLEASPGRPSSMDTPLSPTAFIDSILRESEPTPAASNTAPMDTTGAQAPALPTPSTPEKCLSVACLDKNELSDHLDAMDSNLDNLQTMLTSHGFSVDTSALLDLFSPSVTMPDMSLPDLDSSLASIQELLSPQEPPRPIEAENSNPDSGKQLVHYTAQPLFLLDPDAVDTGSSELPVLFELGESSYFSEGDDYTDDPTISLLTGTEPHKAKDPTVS

[17] = THP-1 cell cytotoxicity, dose response, cytotoxicity control for non-replicating M. tuberculosis project (AID 489025); assay type: functional
[18] = biological target: Acyl-homoserine lactone acylase PvdQ (Pseudomonas aeruginosa (strain LESB58), UniProt Q9I194); experiment: PvdQ acylase enzyme activity blockers – biochemical, fluorescence, plate reader and imaging, cherry-picks, dose response (AID 493231)
[19] = cells; assay type: functional
[20] = biological target: T3, Polyadenylate-binding protein 1 (Homo sapiens, UniProt P11940); experiment: MLLE binding blockers, Cy5 peptide tracer – biochemical, fluorescence polarization, Cy5-PAM2 peptide, secondary, miRNA deadenylation inhibitor project, dose response (AID 602260); assay type: functional; settings: read-out: IC50_Mean
[21] = biological target: T3, Polyadenylate-binding protein 1; experiment: MLLE domain peptide-binding blockers, IC50 – biochemical, fluorescence polarization, FITC-PAM2 peptide, dose response (AID 602259); assay type: functional; settings: read-out: IC50_Mean
[22] = biological target: T4, Aspartyl aminopeptidase (Plasmodium falciparum 3D7, UniProt Q8I2J3)
T4 sequence (Q8I2J3 whole entry): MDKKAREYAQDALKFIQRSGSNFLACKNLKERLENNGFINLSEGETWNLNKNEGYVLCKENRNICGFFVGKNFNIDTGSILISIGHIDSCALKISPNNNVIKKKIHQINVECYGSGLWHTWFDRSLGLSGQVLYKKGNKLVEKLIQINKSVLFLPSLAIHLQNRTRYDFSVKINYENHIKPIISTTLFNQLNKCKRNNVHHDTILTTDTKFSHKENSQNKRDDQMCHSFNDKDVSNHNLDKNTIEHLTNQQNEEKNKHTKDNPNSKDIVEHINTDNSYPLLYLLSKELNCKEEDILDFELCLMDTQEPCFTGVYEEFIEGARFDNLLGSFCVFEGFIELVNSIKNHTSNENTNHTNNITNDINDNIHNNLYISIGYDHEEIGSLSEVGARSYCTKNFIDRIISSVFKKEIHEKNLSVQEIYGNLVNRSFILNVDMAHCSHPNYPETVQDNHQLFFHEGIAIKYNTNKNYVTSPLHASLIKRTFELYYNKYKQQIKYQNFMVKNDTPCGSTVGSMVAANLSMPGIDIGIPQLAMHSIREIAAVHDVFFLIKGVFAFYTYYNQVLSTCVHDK

[23] = biological target: Procathepsin L (Homo sapiens, UniProt P07711)
[24] = biological target: Cytochrome P450 2C9 (Homo sapiens, UniProt P11712); settings: Potency
[25] = biological target: Cytochrome P450 2D6 (Homo sapiens, UniProt P10635); experiment: qHTS Assay for Inhibitors and Substrates of Cytochrome P450 2D6. [Related pubchem assays: 410 ]; assay type: ADME; settings: read-out: Potency
[26] = microbe, parasite or virus in culture; assay type: functional; settings: Mycobacterium tuberculosis
[27] = biological target: T5, Microphthalmia-associated transcription factor (Homo sapiens, UniProt O75030); experiment: reducers of TRPM1 reporter luminescence, concentration series – cell-based, SK-MEL-5, cherry-picked, set 3, MITF inhibitor project, dose response (AID 493073); assay type: functional;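 further: SK-MEL-5 melanoma cells with luciferase driven by the MITF target TRPM1 promoter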
T5 sequence (O75030 whole entry): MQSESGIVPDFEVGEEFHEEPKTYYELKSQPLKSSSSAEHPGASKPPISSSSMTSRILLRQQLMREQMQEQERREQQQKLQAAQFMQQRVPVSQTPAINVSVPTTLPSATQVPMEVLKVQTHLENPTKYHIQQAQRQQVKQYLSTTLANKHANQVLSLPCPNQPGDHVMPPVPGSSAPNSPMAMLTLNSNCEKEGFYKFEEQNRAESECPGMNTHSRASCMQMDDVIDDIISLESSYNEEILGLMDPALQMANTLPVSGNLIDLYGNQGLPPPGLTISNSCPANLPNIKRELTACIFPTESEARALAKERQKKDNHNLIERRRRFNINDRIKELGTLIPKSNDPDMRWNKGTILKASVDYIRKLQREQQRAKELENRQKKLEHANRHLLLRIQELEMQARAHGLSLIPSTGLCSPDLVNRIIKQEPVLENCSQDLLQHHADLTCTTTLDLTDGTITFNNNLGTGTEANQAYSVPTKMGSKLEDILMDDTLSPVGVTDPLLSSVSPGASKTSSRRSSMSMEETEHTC

[28] = test system: HeLa; experiment: viability loss in HeLa cells – cell-based, 24 h, cherry-picked samples, cytotoxicity control, dose response (AID 504726); assay type: functional; settings: Homo sapiens;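 further: potency for cytotoxicity as loss of luminescence signal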
[29] = biological target: T6, Caspase-6 (Homo sapiens, UniProt P55212); experiment: inhibition of CASP6 peptide cleavage – biochemical, VEID-R110 fluorescence, cherry-pick, dose response (AID 720632)
T6 sequence (P55212 whole entry): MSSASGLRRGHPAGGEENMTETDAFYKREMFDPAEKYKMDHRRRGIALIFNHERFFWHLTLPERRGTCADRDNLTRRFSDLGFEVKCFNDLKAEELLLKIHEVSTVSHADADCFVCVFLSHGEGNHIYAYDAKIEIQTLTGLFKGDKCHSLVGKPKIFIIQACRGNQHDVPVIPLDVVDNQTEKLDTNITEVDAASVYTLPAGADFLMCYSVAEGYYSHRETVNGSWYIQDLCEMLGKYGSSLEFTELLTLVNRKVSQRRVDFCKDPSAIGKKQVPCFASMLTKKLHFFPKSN

[30] = biological target: T7, Rac GTPase-activating protein 1 (Homo sapiens, UniProt Q9H0H5); experiment: blockers of MgcRacGAP-driven Rac1 GTP hydrolysis – biochemical, ADP Hunter fluorescence, primary and confirmatory, confirmation (AID 624330); assay type: functional
T7 sequence (Q9H0H5 whole entry): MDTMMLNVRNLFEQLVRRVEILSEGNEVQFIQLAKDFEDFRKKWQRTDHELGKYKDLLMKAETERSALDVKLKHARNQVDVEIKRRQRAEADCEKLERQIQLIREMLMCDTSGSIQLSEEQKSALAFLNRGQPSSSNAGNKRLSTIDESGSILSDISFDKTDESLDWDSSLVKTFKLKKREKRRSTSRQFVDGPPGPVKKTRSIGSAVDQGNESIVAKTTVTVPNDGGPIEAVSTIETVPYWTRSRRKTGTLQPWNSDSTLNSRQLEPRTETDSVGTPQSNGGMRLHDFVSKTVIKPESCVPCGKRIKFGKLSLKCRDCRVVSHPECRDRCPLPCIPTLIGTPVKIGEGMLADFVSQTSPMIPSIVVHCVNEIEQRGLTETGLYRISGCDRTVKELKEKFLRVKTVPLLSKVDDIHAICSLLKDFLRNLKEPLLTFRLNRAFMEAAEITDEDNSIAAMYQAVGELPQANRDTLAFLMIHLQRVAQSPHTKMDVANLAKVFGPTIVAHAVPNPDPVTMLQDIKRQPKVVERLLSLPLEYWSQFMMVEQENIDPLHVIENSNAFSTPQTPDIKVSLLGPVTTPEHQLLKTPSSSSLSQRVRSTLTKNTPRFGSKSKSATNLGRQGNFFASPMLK

Chain of Acyl-homoserine lactone acylase PvdQ (Q9I194 24-193 limits assumed): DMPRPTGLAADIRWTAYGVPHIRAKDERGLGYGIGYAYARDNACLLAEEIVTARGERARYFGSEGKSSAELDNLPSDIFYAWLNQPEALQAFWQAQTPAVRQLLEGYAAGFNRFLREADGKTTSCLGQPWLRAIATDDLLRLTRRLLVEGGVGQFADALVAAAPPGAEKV
Chain of Acyl-homoserine lactone acylase PvdQ (Q9I194 217-762 limits assumed): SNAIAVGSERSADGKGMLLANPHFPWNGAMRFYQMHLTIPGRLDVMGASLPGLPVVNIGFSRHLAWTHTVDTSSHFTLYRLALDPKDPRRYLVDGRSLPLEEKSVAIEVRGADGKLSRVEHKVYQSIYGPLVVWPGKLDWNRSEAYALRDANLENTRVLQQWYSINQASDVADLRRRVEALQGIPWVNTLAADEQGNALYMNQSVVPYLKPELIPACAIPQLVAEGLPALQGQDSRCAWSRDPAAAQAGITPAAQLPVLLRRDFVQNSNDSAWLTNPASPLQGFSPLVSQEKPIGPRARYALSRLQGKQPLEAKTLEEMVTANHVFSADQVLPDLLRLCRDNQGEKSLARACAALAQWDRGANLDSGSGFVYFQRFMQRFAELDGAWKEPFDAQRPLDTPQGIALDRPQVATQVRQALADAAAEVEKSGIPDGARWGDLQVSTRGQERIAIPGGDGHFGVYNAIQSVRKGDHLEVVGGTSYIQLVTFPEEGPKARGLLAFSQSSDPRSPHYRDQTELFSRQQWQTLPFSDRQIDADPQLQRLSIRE
Chain of Cyclin-dependent kinase 5/CDK5 activator 1 (Q00535 whole entry): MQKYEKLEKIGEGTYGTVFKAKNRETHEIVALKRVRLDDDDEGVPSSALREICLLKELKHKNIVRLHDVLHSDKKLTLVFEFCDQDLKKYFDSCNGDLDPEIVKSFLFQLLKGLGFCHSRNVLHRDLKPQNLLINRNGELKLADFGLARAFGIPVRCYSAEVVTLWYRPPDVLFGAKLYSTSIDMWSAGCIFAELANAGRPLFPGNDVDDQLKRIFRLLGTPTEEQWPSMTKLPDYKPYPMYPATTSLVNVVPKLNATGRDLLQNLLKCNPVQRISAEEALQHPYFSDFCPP
Chain of Cyclin-dependent kinase 5/CDK5 activator 1 (Q15078 whole entry, further chain): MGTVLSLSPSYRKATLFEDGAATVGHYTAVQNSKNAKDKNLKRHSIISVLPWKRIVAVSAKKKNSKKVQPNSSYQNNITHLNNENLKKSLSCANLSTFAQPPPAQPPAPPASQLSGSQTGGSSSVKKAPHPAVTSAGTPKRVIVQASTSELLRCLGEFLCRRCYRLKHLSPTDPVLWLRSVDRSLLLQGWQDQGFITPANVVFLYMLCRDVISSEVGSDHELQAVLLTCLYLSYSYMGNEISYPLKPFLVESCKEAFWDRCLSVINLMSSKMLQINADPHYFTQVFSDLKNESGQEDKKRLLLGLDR
Chain of Procathepsin L (P07711 whole entry): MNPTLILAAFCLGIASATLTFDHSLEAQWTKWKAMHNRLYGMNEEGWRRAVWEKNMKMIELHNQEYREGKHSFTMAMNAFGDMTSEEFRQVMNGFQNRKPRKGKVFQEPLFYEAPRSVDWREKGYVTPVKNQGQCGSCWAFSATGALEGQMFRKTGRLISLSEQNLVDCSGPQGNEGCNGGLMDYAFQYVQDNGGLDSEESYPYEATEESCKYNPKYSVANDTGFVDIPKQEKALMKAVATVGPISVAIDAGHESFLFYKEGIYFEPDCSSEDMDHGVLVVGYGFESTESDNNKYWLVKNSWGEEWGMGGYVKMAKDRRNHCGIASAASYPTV
T1 sequence (P41145 whole entry): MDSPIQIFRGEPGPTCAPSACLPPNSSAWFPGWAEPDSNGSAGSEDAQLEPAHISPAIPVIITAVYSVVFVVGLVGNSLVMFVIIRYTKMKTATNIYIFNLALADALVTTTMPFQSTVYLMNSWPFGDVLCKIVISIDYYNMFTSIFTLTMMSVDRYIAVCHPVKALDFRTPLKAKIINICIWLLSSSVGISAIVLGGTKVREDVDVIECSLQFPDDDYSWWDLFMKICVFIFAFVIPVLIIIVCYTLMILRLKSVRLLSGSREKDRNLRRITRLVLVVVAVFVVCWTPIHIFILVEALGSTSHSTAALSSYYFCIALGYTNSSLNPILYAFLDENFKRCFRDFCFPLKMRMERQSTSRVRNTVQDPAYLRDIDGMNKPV
Chain of Neurotensin receptor type 1 (P30989 whole entry): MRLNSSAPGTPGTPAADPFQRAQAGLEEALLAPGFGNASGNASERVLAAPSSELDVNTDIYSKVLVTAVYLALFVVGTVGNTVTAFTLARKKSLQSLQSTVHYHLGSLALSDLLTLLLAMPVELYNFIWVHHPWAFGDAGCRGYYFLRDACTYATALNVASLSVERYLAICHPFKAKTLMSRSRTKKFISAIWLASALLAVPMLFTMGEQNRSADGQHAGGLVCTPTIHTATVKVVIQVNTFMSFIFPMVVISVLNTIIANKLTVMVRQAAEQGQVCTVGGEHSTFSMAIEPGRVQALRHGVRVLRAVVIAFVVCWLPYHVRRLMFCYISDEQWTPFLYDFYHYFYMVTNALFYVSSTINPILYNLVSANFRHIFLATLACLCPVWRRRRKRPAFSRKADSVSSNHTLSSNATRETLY
Chain of Cytochrome P450 2C9 (P11712 whole entry): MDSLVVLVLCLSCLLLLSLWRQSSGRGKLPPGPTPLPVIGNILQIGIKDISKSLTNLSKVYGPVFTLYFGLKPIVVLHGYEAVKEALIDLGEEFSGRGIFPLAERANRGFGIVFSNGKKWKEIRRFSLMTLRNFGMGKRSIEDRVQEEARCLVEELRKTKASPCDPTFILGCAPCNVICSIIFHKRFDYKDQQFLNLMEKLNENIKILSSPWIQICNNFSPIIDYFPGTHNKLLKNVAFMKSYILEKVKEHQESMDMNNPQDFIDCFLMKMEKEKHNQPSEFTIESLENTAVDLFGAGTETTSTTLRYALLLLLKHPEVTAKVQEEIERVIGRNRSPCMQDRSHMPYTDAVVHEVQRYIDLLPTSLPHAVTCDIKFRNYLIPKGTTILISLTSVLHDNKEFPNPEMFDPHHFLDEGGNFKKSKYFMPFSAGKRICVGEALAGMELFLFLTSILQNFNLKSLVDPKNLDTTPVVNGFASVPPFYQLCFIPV
T3 sequence (P11940 whole entry, the tested form may be a part): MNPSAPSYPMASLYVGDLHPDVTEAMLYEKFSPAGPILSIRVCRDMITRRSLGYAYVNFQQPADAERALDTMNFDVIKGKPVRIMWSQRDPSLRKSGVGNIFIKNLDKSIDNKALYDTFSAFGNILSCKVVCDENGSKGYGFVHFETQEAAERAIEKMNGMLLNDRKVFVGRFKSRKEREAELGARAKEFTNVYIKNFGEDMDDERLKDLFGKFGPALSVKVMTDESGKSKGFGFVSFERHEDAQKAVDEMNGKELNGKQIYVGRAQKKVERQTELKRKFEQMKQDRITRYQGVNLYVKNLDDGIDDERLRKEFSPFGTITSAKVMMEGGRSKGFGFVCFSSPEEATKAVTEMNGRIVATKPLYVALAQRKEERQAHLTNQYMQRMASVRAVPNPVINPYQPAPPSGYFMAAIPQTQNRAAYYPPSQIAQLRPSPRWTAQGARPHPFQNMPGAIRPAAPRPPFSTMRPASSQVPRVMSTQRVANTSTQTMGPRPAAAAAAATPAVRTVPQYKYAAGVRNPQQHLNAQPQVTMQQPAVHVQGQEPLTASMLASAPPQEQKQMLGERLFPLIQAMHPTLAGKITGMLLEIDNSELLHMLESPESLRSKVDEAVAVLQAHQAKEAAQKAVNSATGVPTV
Chain of Beta-galactosidase (Q8VNN2 whole entry): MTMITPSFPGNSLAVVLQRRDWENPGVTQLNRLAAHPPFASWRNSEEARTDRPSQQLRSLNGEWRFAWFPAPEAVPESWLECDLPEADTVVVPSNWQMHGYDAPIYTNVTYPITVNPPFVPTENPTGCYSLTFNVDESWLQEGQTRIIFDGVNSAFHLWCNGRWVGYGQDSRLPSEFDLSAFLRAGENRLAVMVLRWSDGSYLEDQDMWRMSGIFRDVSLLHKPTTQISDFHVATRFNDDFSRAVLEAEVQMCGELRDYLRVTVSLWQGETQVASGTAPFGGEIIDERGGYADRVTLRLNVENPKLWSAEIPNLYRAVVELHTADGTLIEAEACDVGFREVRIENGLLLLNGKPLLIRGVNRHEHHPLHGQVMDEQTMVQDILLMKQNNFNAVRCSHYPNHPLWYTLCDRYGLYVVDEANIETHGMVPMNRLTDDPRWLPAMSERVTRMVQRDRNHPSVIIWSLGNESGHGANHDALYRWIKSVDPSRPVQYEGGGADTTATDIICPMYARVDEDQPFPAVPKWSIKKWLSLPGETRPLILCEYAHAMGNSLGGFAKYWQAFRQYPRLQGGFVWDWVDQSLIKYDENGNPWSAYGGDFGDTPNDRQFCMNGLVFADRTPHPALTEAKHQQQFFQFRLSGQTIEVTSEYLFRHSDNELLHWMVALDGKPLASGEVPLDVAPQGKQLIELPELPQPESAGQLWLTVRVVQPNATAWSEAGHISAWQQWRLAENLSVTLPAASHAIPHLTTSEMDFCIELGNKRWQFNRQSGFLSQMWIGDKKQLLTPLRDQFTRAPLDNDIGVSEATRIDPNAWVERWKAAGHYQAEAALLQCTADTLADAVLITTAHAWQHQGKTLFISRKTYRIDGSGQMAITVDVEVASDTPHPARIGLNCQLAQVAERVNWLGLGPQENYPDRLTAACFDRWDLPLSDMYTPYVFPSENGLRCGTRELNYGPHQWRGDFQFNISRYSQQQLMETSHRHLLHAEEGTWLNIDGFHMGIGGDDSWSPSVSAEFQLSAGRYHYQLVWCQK

Nc1nc(Nc2ccccc2)nc(NCCO)c1[N+](=O)[O-]
AC50 [1]: 17.5 µM (active)

COc1ccc(C)c(-n2c(=O)n(Cc3ccccc3)c(=O)c3[nH]cnc32)c1
IC50 [2]: 6.84 µM (active) | EC50 [3]: 9.23 µM (active) | pIC50 [4]: < 4.49

O=C(Oc1ccc(Br)cc1C(=O)/C=C/c1ccccc1F)c1ccco1
AC50 [5]: 5.03 µM (active) | EC50 [6]: 15.9 µM (active)

Cc1nc2cc(-c3ccccc3)nn2c(C)c1CCC(=O)NCc1ccco1
EC50 [7]: 17.6 µM (active) | EC50 [8]: 9.65 µM (active) | IC50 [9]: > 80 µM (inactive)

Cc1csc2nc(CCNS(=O)(=O)c3cccs3)cn12
EC50 [10]: 3.07 µM (active) | EC50 [11]: 1.85 µM (active) | EC50 [12]: 13.1 µM (active) | EC50 [13]: 2.18 µM (active) | EC50 [14]: 45.9 µM (active) | EC50 [15]: 96.8 µM (active) | EC50 [16]: 254 µM (active)

Cc1ccc(O)c(C(=O)c2cc(C#N)c(=O)n(-c3nccs3)c2)c1
CC50 [17]: 29.6 µM (active)

CCOCC(=O)Nc1nc2ccc(C)cc2s1
AC50 [18]: 24 µM (active) | IC50 [19]: 34.5 µM (active) | IC50 [20]: > 66 µM (inactive) | IC50 [21]: > 66 µM (inactive)

O=C(NCCc1ccc(O)c(O)c1)C1COc2ccccc2O1 (stereo not drawn)
IC50 [22]: 2.11 µM (active) | IC50 [23]: > 59.6 µM (not active) | EC50 [16]: 28.5 µM (active)

CCOC(=O)OCC1OC(C#Cc2ccc(C(C)(C)C)cc2)C=CC1OC(=O)OCC (stereo not drawn)
AC50 [24]: 0.0025 µM (inconclusive)

CC(C)C[C@@H](CC(=O)N[C@H](CC(=O)N[C@@H]1CCNC[C@H]1C(=O)N[C@H](CC(=O)N[C@@H](CCC(=O)O)CC(=O)O)CC(C)C)C(C)C)NC(=O)[C@@H]1CCCC[C@H]1N
AC50 [25]: 39.8 µM (inconclusive) | AC50 [24]: 39.8 µM (inconclusive)

O=[N+]([O-])c1ccc(Sc2cc[n+]([O-])c3ccccc23)c([N+](=O)[O-])c1
CC50 [26]: 12.1 µM (active) | AC50 [27]: 5.92 µM (active) | IC50 [9]: > 80 µM (inactive)

Cc1scc(C(=O)Nn2cnnc2)c1-c1ccccc1
IC50 [22]: 3.13 µM (active) | IC50 [23]: > 59.6 µM (not active)

O=C(COC(=O)c1ccc([N+](=O)[O-])o1)NCCCc1ccccc1
AC50 [28]: > 350 µM (inactive) | AC50 [29]: 35.2 µM (active)

COc1cc2ccccc2ccc1=NO
AC50 [1]: 34.7 µM (active)

O=C(COc1ccccc1)NCC(=O)N/N=C/c1ccc(O)cc1O
EC50 [6]: > 40 µM (inactive) | IC50 [30]: 69.4 µM (active)

CO/N=C/c1cn(-c2ccc(Cl)cc2)nn1
AC50 [18]: 5.97 µM (active)
